The values below come from ChEMBL document CHEMBL1156345, “Suillusin, a unique benzofuran from the mushroom Suillus granulatus” (J Nat Prod, 2001).

Test [1] deals with Radical scavenging activity. As to the kind of experiment: Antioxidant activity assessed as DPPH radical scavenging activity at 100 ug/mL. The test is classed as functional.
The test system of the next test is HCT-15. As to the kind of experiment: Cytotoxicity against human HCT15 cells at 30 ug/mL after 48 hrs by SRB assay. The class given is functional, cell-based.
Another test concerns PC-3. As to the kind of experiment: Cytotoxicity against human PC3 cells at 30 ug/mL after 48 hrs by SRB assay. The test is classed as functional, cell-based.
The test system of a further test is UACC-62. As to the kind of experiment: Cytotoxicity against human UACC62 cells after 48 hrs by SRB assay. The test is classed as functional, cell-based. The following applies: UACC-62, 48 h.
A further test concerns A549. As to the kind of experiment: Cytotoxicity against human A549 cells at 30 ug/mL after 48 hrs by SRB assay. The test is classed as functional, cell-based.
In another test the test system is SW-620. As to the kind of experiment: Cytotoxicity against human SW620 cells after 48 hrs by SRB assay. The class given is functional, cell-based. As to conditions: SW-620, 48 h.
For the next test, the system named is SK-OV-3. As to the kind of experiment: Cytotoxicity against human SKOV3 cells at 30 ug/mL after 48 hrs by SRB assay. The class given is functional, cell-based.

Values after ≈ are worked out from the molar mass of the structure shown. Active and inactive are the calls of the source. The rule behind the calls is not given here.

As for VITAMIN E, the Activity in test [1] stood at 73%.
As for `COC(=O)[C@@]12Oc3ccc(O)cc3[C@@H]1C(=O)C(O)=C2c1ccc(O)c(O)c1` [SUILLUSIN], the outcome with HCT-15, in the test with PC-3, in the test on A549 and in the test with SK-OV-3 was Active. For the same compound, the results for the IC50 in the test with UACC-62 and with SW-620 were 12 µg/mL (≈ 32.4 µM) and 20 µg/mL (≈ 54 µM), respectively. In addition, in test [1], the Activity was 30%.
